Data: US4421768A, “Fluorinated diamino-heptene and-heptyne derivatives” (Merrell Toraude et Compagnie, priority 1982, dated 1983)
Where a name gives a salt, the structure may show the parent alone. Read-outs that look alike come from different tables or passages of the source.

Biological target: T1, Ornithine decarboxylase (ODC) (Rattus norvegicus, UniProt P09057)
T1 construct: prepared from the livers of rats which have been injected with thioacetamide; from tissue; host or cells: liver of thioacetamide-injected rats, purified about ten fold by acid treatment at pH 4.6
T1 sequence (P09057 1-461): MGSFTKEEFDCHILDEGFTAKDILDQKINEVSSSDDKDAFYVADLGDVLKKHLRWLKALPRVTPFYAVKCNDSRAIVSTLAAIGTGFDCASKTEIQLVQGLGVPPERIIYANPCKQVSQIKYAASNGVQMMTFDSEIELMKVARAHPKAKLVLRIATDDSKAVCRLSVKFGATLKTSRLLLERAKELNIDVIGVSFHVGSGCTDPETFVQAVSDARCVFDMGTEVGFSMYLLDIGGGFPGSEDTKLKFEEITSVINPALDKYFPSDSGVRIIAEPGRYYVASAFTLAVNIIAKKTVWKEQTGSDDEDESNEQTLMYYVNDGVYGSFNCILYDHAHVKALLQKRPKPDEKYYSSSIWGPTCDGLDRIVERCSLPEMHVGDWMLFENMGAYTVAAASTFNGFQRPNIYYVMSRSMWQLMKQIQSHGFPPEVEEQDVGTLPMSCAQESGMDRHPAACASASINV
Assay: In vitro inhibition of ornithine decarboxylase (ODC) prepared from livers of thioacetamide-injected rats (time-dependent inactivation, 14CO2 release)
Assay type: biochemical
Protocol: Ornithine decarboxylase (ODC) is prepared from the livers of rats which have been injected with thioacetamide (150 mg/kg of body weight) 18 hrs before sacrifice, and is purified about ten fold by acid treatment at pH 4.6 as described by Ono et al (Biochem. Biophys. Acta 284, 285 (1972)). The stock solution of ODC is comprised of protein (16 mg/mL), sodium phosphate buffer (30 mM, pH 7.1), dithiothreitol (5 mM) and pyridoxal phosphate (0.1 mM). The specific activity of this stock solution is 0.12 nmol of CO2 /min per mg of protein. For a typical experiment 320 μl of this stock solution are mixed at time 0 with 80 μl of a solution of the inhibitor in water and incubated at 37°. At different times 50 μl aliquots are transferred into a 1-mL assay medium containing sodium phosphate (30 mM, pH 7.1), dithiothreitol (5 mM), pyridoxal phosphate (0.1 mM), L-ornithine (0.081 μmol), and DL-[1-^14 C] ornithine (0.043 μmol, 58 Ci/mol, Amersham) in a closed vessel in which a filter paper moistered with 50 μl hyamine hydroxide (1 M) is fitted. The reaction is allowed to proceed for 60 min at 37° C. and then terminated by addition of 0.5 ml of 40% trichloroacetic acid. After an additional 30 min the CO2 absorbed on the filter paper is counted in a standard scintillation cocktail, KI (apparent dissociation constant) and .tau.50 (half-life, at infinite concentration of inhibitor are calculated according to the method of Kitz and Wilson (J. Biol. Chem., 237, 3245 (1962)).
When tested according to the above-described procedure, the compounds of Examples I and 2 gave the results shown below. Half-life (t1/2) at 10 μM is also set forth below.

SMILES	Ki (rat liver ODC, 37°, pH 7.1, calculated by method of Kitz and Wilson, read-out: KI (apparent dissociation constant)) [µM]	T50 (.tau.50, half-life at infinite concentration of inhibitor) (rat liver ODC, 37°, pH 7.1, infinite concentration of inhibitor, method of Kitz and Wilson) [min]	t1/2 (half-life at 10 μM) (rat liver ODC, 37°, pH 7.1, inhibitor 10 μM) [min]	Ki [µM]
C#CC(N)CCC(N)CF.Cl.Cl (stereo not shown) [Example 1, 1-FLUORO-2,5-DIAMINO-6-HEPTYNE DIHYDROCHLORIDE]	50	3.7	22	–
C#CC(N)CCC(N)C(F)F (stereo not shown) [Example 2, 1,1-DIFLUORO-2,5-DIAMINO-6-HEPTYNE, DIHYDROCHLORIDE]	–	–	–	1500
